From patent EP0964681B1, “ANTICONVULSANT DERIVATIVES USEFUL IN TREATING PSORIASIS” (Ortho-McNeil Pharmaceutical, Inc., priority 1996, dated 1998)
Where two headings read alike, the source gives them in different places.

What was measured:
seizures [1] = conditions: several rodent models of epilepsy; cited from earlier work
keratinocytes [2] = assay: Keratinocyte cell growth induced by EGF and BPE; type: cell-based; conditions: six days of treatment
Protocol: In these studies, keratinocytes were grown in Medium154, a low calcium medium supplemented with bovine pituitary extract (BPE), bovine insulin, bovine transferrin, human epidermal growth factor (EGF) and hydrocortisone. Keratinocytes were grown to 60-80% confluence and subcultured by using trypsin/EDTA. Four separate experiments were performed to evaluate the dose-dependent effect of topiramate on keratinocyte cell growth as measured by […] after six days of treatment. Topiramate was dissolved in DMSO to make a 100 mM stock solution. In all experiments the final concentration of DMSO in the cell incubation medium was 0.1%. Vehicle controls (0.1% DMSO) were included in each experiment. Cell growth was induced by a combination of the growth factors EGF and BPE.

psoriatic lesions = assay: Clinical studies of topiramate in epilepsy; patients who coincidentally had psoriasis; type: in vivo, human; conditions: reported by at least three epilepsy-trial patients who coincidentally had psoriasis
Protocol: The activity of the compounds of formula I in treating psoriasis was first evidenced in clinical studies conducted to evaluate the efficacy of topiramate in treating epilepsy. […] Therefore, preclinical in vitro studies were conducted to evaluate the effects of topiramate on keratinocyte function as a putative mechanism of action for its potential beneficial effects in treating psoriasis. One of the hallmarks of psoriatic lesions is hyperproliferative epidermal keratinocytes. In general, agents that affect the proliferation of keratinocytes have an inverse effect on differentiation, i.e. they would inhibit growth and enhance differentiation. Two measures of keratinocyte function were therefore evaluated: cell growth and differentiation.

seizures [3] = conditions: animal model of kindled epilepsy; cited from earlier work
[4] = test system: simple and complex partial seizures and secondarily generalized seizures; conditions: clinical trials; adjunctive therapy or monotherapy; cited from earlier work
keratinocytes [5] = assay: Keratinocyte differentiation measured by expression of transglutaminase-1 protein; type: cell-based
Protocol: In these studies, keratinocytes were grown in Medium154, a low calcium medium supplemented with bovine pituitary extract (BPE), bovine insulin, bovine transferrin, human epidermal growth factor (EGF) and hydrocortisone. Keratinocytes were grown to 60-80% confluence and subcultured by using trypsin/EDTA. The effect of topiramate on keratinocyte differentiation was measured by the expression of transglutaminase-1 protein after three days of treatment. Three separate experiments were performed. Differentiation was evaluated in both low calcium and high calcium incubation conditions. An increase in differentiation would be most readily observed under low calcium conditions whereas an inhibition of differentiation could be detected under conditions of high calcium-induced differentiation. […] A follow-up study was conducted which extended the incubation time to 5 days to look for further enhancement.

transglutaminase-1 protein (keratinocytes [5]; follow-up study, incubation time extended to 5 days): No additional increases
transglutaminase-1 protein (keratinocytes [5]; high calcium incubation conditions, three days of treatment): modest increase
transglutaminase-1 protein (keratinocytes [5]; low calcium incubation conditions, three days of treatment): modest increase
SMILES: CC1(C)O[C@@H]2[C@@H](CO[C@@]3(COS(N)(=O)=O)OC(C)(C)O[C@@H]23)O1 [topiramate, 2,3:4,5-bis-O-(1-methylethylidene)-β-D-fructopyranose sulfamate]
block of seizures (seizures [1]): effectively block seizures
Emax at 10 µM (keratinocytes [2]; Keratinocyte, 144 h, 10 micromolar, growth induced by EGF and BPE, four experiments, not statistically significant (p>0.05), read-out: inhibition of cell growth (maximal response)): 32 ± 10%
dose dependence of the effect on keratinocyte cell growth (keratinocytes [2]; four experiments): no dose dependence was observed
effect on keratinocyte cell growth (keratinocytes [2]; growth induced by EGF and BPE, 0.1% DMSO): modest inhibitory effect
psoriatic lesions (psoriatic lesions): marked reduction in the psoriatic lesions
block of seizures (seizures [3]): effectively block seizures
efficacy in treating simple and complex partial seizures and secondarily generalized seizures [4]: effective as adjunctive therapy or as monotherapy
